Laboratory results as given in ChEMBL document CHEMBL3885861, “Open TG-GATES”.

Species on record: Rattus norvegicus
Assay: Open TG-GATES - Regimen: Single
Type: toxicity, organism-based, Sprague-Dawley
Set-up: regimen Single, gender Male, age 6 weeks
Conditions: in vivo, ip, 1000 mg/kg, route intraperitoneal injection, dose level High; for APTT / Bas / Eos / Fbg / Hb / Ht / Lym / MCH / MCHC / MCV / Mono / Neu / PT / Plat / RBC / Ret / WBC: tissue Blood; for KIDNEY_L / KIDNEY_R / KIDNEY_TOTAL: tissue Kidney; for LIVER: tissue Liver; for A/G / ALP / ALT / AST / BUN / CRE / Ca / Cl / DBIL / GLC / IP / K / LDH / Na / PL / RALB / TBIL / TC / TG / TP / gamma-GTP: tissue Plasma

## N[C@H]1C(O)O[C@H](CO)[C@@H](O)[C@@H]1O (some centres not stated) [GLUCOSAMINE]
3 h
  TERMINAL_BW: 188.7 g
  APTT: 21 s
  Bas: 0.2%
  Eos: 0.8%
  Fbg: 265 mg/dL
  Hb: 12.8 g/dL
  Ht: 39.4%
  Lym: 73.6%
  MCH: 21 pg
  MCHC: 32.4%
  MCV: 64.9 fL
  Mono: 3.4%
  Neu: 21.2%
  PT: 16.7 s
  Plat: 106.7 x10_4/uL
  RBC: 608 x10_4/ul
  Ret: 9.6%
  WBC: 92.4 x10_2/uL
  KIDNEY_L: 0.8 g
  KIDNEY_R: 0.8 g
  KIDNEY_TOTAL: 1.6 g
  LIVER: 8.9 g
  A/G: 0.9
  ALP: 1493 IU/L
  ALT: 50 IU/L
  AST: 92.6 IU/L
  BUN: 12 mg/dL
  CRE: 0.2 mg/dL
  Ca: 10.6 mg/dL
  Cl: 110 meq/L
  DBIL: 0.012 mg/dL
  GLC: 167.2 mg/dL
  IP: 7.1 mg/dL
  K: 3.9 meq/L
  LDH: 93.4 IU/L
  Na: 143.4 meq/L
  PL: 129.4 mg/dL
  RALB: 2.5 g/dL
  TBIL: 0.064 mg/dL
  TC: 71.4 mg/dL
  TG: 25 mg/dL
  TP: 5.2 g/dL
  gamma-GTP: 1 IU/L
6 h
  TERMINAL_BW: 187.1 g
  APTT: 18.1 s
  Bas: 0%
  Eos: 0.2%
  Fbg: 246.6 mg/dL
  Hb: 13.4 g/dL
  Ht: 41.5%
  Lym: 62.8%
  MCH: 21 pg
  MCHC: 32.3%
  MCV: 65.1 fL
  Mono: 1.4%
  Neu: 34.4%
  PT: 18.9 s
  Plat: 102.2 x10_4/uL
  RBC: 637.8 x10_4/ul
  Ret: 9%
  WBC: 60.4 x10_2/uL
  KIDNEY_L: 0.9 g
  KIDNEY_R: 0.8 g
  KIDNEY_TOTAL: 1.7 g
  LIVER: 8.4 g
  A/G: 0.9
  ALP: 1303.2 IU/L
  ALT: 131 IU/L
  AST: 226.6 IU/L
  BUN: 12.2 mg/dL
  CRE: 0.2 mg/dL
  Ca: 10.3 mg/dL
  Cl: 107.8 meq/L
  DBIL: 0.02 mg/dL
  GLC: 159.4 mg/dL
  IP: 8.2 mg/dL
  K: 3.7 meq/L
  LDH: 316.4 IU/L
  Na: 142.8 meq/L
  PL: 125.6 mg/dL
  RALB: 2.3 g/dL
  TBIL: 0.072 mg/dL
  TC: 68.8 mg/dL
  TG: 17.8 mg/dL
  TP: 5 g/dL
  gamma-GTP: 1 IU/L
9 h
  TERMINAL_BW: 182.7 g
  APTT: 18.9 s
  Bas: 0%
  Eos: 0.8%
  Fbg: 289.2 mg/dL
  Hb: 13.2 g/dL
  Ht: 40.3%
  Lym: 68%
  MCH: 21.1 pg
  MCHC: 32.7%
  MCV: 64.6 fL
  Mono: 2.2%
  Neu: 28.2%
  PT: 17.4 s
  Plat: 108.7 x10_4/uL
  RBC: 624.8 x10_4/ul
  Ret: 9.7%
  WBC: 63.8 x10_2/uL
  KIDNEY_L: 0.8 g
  KIDNEY_R: 0.8 g
  KIDNEY_TOTAL: 1.6 g
  LIVER: 7.5 g
  A/G: 0.9
  ALP: 1707.4 IU/L
  ALT: 72.2 IU/L
  AST: 136.6 IU/L
  BUN: 9.4 mg/dL
  CRE: 0.2 mg/dL
  Ca: 10.3 mg/dL
  Cl: 108.8 meq/L
  DBIL: 0.016 mg/dL
  GLC: 159.6 mg/dL
  IP: 9.9 mg/dL
  K: 3.9 meq/L
  LDH: 111.4 IU/L
  Na: 143.2 meq/L
  PL: 142.2 mg/dL
  RALB: 2.5 g/dL
  TBIL: 0.07 mg/dL
  TC: 79.2 mg/dL
  TG: 22 mg/dL
  TP: 5.4 g/dL
  gamma-GTP: 1 IU/L
24 h
  TERMINAL_BW: 192.2 g
  APTT: 23.1 s
  Bas: 0.4%
  Eos: 1.2%
  Fbg: 165.4 mg/dL
  Hb: 13.8 g/dL
  Ht: 42.5%
  Lym: 63.2%
  MCH: 21 pg
  MCHC: 32.5%
  MCV: 64.6 fL
  Mono: 4.6%
  Neu: 28.4%
  PT: 33.2 s
  Plat: 109 x10_4/uL
  RBC: 658 x10_4/ul
  Ret: 8.6%
  WBC: 78.4 x10_2/uL
  KIDNEY_L: 0.9 g
  KIDNEY_R: 0.9 g
  KIDNEY_TOTAL: 1.8 g
  LIVER: 8.1 g
  A/G: 0.9
  ALP: 2378 IU/L
  ALT: 313.8 IU/L
  AST: 571.6 IU/L
  BUN: 12.6 mg/dL
  CRE: 0.2 mg/dL
  Ca: 10.3 mg/dL
  Cl: 106.2 meq/L
  DBIL: 0.2 mg/dL
  GLC: 147.6 mg/dL
  IP: 9.3 mg/dL
  K: 4.2 meq/L
  LDH: 727.6 IU/L
  Na: 143.2 meq/L
  PL: 99.6 mg/dL
  RALB: 2.3 g/dL
  TBIL: 0.3 mg/dL
  TC: 51.6 mg/dL
  TG: 25.2 mg/dL
  TP: 4.9 g/dL
  gamma-GTP: 1.2 IU/L
